We go through one molecule from publication PMC6323428, “Elucidation of the Intestinal Absorption Mechanism of Loganin in the Human Intestinal Caco-2 Cell Model” (Evidence-based Complementary and Alternative Medicine : eCAM, 2018).

“Also recorded” adds a separate entry of the source.

The target of series [1] is T1, MRP2 (Homo sapiens, UniProt Q92887).
T1 construct: MRP2 and MRP3 were the main apically and basolaterally localized MRPs of the Caco-2 cells; endogenous in cells; host or cells: Caco-2 monolayers
T1 sequence (Q92887 whole entry): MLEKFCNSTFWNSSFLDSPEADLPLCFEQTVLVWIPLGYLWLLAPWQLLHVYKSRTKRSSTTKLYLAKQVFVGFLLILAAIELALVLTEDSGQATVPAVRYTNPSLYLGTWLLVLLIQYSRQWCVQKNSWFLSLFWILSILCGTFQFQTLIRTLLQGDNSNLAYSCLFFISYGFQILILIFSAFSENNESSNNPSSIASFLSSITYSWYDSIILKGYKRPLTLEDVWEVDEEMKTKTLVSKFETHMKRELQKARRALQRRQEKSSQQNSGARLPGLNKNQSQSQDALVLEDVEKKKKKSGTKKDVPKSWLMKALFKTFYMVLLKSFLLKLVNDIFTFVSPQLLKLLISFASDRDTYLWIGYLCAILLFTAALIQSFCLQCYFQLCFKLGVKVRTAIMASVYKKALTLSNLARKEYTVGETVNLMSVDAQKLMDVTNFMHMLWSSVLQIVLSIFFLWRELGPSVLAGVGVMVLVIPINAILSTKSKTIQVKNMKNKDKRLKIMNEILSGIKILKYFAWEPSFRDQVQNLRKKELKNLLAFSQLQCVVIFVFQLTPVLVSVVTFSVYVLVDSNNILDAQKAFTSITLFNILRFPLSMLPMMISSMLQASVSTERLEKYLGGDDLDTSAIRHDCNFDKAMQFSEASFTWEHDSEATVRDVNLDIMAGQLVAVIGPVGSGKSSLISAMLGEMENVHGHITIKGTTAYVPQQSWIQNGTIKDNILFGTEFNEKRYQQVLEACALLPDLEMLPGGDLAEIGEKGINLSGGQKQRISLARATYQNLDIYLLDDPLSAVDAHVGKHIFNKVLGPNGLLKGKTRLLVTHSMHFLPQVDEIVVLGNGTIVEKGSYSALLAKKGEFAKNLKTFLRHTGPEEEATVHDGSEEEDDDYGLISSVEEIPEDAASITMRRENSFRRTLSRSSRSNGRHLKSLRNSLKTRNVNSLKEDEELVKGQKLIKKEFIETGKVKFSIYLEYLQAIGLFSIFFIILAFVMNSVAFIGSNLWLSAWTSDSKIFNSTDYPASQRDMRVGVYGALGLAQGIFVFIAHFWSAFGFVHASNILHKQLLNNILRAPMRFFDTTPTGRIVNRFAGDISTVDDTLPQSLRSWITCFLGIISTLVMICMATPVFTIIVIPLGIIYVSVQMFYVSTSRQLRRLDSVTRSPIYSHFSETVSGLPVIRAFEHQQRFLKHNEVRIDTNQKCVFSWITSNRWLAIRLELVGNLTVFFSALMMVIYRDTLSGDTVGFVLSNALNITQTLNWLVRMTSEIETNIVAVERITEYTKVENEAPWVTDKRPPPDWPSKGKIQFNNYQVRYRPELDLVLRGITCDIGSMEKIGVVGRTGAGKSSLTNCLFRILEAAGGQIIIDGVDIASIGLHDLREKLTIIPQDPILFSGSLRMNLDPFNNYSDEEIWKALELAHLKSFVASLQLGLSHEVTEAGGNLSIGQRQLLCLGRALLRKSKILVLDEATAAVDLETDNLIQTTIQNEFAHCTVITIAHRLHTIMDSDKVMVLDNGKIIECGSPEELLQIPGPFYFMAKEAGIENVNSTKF
As to the kind of experiment: Loganin transport across Caco-2 monolayers with MRP2 inhibitor indomethacin. It counts as in vitro ADME. Further details: key to Modulatory effect: +: Indicates that the inhibitor has significant effect on the loganin transport. The method, then: (§1) Before the experiments, the human intestinal Caco-2 cell monolayers were washed twice with HBSS medium (pH 7.4). The transport experiments were conducted by adding the drug solutions (containing 1% DMSO) to either the apical (AP, 0.5 mL) or basolateral side (BL, 1.0 mL), while the receiving chamber contained the corresponding volume of blank HBSS medium. The monolayers were incubated at 37°C, and 50 μL samples were taken at 15, 30, 45, 60, 90, and 120 min from the acceptor compartment, and the volume was then immediately replaced with50 μL of fresh, prewarmed blank HBSS. TEER measurements for assessing the membrane integrity took place before and after the experiment. The samples were frozen immediately and stored below −80°C before analysis.
(§2) Several efflux and influx transporters were investigated for their effects on the transport flux of loganin. One hundred μM verapamil was added to evaluate the selectivity of P-glycoprotein (P-gp); inhibiting the efflux by multidrug resistance-associated proteins (MRPs) was undertaken by adding 100μM MK571, 50μM benzbromarone, and 200μM indomethacin [21–23]; 25 μM apigenin was used to investigate breast cancer resistance protein (BCRP); 50 μM sodium vanadate and cimetidine were used as Na^+/K^+pump and […] inhibitors.
(§3) UPLC-MS/MS data acquisition was performed using Analyst 1.5.2 and MultiQuant 2.1.1 software (Applied Biosystems). The data were analyzed by SPSS Software. The apparent permeability coefficient (Papp) was calculated according to Papp = (dQ/dt)/(A·C0)
(§4) where dQ/dt is the steady-state flux (nmol/s), A is the surface area of the insert (cm^2); C0 is the initial concentration. The efflux ratio (P) was determined by calculating the ratio of PappBA versus PappAB as in(1) P=PappBA/PappAB Statistical analysis was performed with analysis of variance (ANOVA) after confirmation of normal distributions.

Series [2] relates to T2, MRP2.
T2 construct: MRP2 and MRP3 were the main apically and basolaterally localized MRPs of the Caco-2 cells; endogenous in cells; host or cells: Caco-2 monolayers
The description is as above. On the set-up: key to Modulatory effect: +: Indicates that the inhibitor has significant effect on the loganin transport. The conditions noted are these: human, Caco-2, pH 7.4; with indomethacin 200 μM, loganin 20 μM, n = 3. It counts as in vitro ADME, human. The method, then:
as §1, §2, §3, §4

The test system of series [3] is T3, P-glycoprotein (P-gp).
T3 construct: endogenous in cells; host or cells: Caco-2 monolayers
Description: Loganin transport across Caco-2 monolayers with P-gp inhibitor verapamil. It is filed as in vitro ADME, human. Particulars: human, Caco-2, pH 7.4; with verapamil 100 μM, loganin 20 μM, n = 3. How it is done:
as §1, §2, §3, §4

For series [4], the target named is T4, P-glycoprotein (P-gp) (Homo sapiens, UniProt P08183).
T4 construct: endogenous in cells; host or cells: Caco-2 monolayers
T4 sequence (P08183 whole entry): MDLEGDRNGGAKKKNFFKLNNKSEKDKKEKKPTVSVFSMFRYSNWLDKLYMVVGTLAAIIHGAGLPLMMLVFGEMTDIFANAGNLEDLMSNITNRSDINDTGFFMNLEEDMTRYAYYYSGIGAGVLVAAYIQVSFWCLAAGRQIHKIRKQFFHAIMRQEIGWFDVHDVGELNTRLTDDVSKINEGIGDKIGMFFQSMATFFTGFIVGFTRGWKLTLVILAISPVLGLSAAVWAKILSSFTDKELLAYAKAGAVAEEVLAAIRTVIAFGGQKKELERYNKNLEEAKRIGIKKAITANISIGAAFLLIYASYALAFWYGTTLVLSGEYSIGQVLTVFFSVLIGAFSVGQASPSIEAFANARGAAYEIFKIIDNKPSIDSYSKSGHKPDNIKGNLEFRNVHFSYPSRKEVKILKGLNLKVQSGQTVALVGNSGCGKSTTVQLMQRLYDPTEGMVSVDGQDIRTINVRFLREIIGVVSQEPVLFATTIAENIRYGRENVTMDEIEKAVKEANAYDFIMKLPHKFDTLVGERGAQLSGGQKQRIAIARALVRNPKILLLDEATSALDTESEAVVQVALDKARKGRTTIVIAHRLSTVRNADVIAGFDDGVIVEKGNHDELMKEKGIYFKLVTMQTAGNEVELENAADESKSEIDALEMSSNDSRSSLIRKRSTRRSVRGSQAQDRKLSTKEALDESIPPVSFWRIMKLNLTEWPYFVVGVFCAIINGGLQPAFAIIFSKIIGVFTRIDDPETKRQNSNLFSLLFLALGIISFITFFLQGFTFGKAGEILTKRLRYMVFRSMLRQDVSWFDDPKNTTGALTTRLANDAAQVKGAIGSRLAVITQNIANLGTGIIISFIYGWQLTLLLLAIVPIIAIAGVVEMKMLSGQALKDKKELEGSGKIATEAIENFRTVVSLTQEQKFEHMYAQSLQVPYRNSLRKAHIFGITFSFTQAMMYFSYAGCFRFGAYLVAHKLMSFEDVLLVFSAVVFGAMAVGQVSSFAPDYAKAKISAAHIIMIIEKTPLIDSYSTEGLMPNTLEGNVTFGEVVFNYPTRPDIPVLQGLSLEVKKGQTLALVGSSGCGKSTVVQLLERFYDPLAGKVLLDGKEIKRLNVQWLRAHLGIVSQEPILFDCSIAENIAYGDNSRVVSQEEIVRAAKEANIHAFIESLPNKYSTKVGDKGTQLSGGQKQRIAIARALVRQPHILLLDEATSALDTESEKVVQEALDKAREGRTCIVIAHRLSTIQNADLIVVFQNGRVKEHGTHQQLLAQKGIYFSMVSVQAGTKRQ
The series is described as above. It counts as in vitro ADME. How it is done:
as §1, §2, §3, §4

For series [5], the system named is human intestinal Caco-2 cell monolayers. Description: Bidirectional transport across Caco-2 cell monolayers (concentration, time, pH, temperature; control without inhibitor). It is filed as in vitro ADME. The method, then:
Cells were maintained in DMEM with 10% FBS, 1× nonessential amino acids, and 1× penicillin and streptomycin at 37°C with 5% CO2. Cells of passage 35-40 were used in this study to maintain relatively constant cellular phenotypes. The medium was replaced every 2-3 days during incubation. After reaching approximately 80% confluence, the cells were detached using 0.02% ethylenediaminetetraacetic acid (EDTA) and 0.05% trypsin at a density of 5.3×10^4 cells/cm^2 on a 60-mm plastic culture dish for the uptake experiment or a 12-mm polyester membrane insert in a 12-well plate for the permeation experiment. The media in the culture plates were changed every two days for the first week after seeding and replaced daily afterward. The integrity of the cell monolayers was examined by measuring the transepithelial electrical resistance (TEER) with a Millicell-ERS-electrode (Millipore Corp, Billerica, MA, USA). After 21-23 days, monolayers with a TEER value (TEER=[TEERtest- TEERbackground]×area) above 500Ωcm^2 were used during the transport experiments.
as §1
The loganin transport (20 μM) at 4°C and 37°C was evaluated in the AP to BL direction to investigate the effect of temperature. The effect of pH on the loganin transport (20 μM) in the AP to BL direction was studied using the following pH combinations for the HBSS in the acceptor/donor compartments: 6.0/7.4 and 7.4/7.4.
as §3, §4

Series [6] deals with T5, BCRP (Homo sapiens, UniProt Q9UNQ0).
T5 construct: endogenous in cells; host or cells: Caco-2 monolayers
T5 sequence (Q9UNQ0 1-655): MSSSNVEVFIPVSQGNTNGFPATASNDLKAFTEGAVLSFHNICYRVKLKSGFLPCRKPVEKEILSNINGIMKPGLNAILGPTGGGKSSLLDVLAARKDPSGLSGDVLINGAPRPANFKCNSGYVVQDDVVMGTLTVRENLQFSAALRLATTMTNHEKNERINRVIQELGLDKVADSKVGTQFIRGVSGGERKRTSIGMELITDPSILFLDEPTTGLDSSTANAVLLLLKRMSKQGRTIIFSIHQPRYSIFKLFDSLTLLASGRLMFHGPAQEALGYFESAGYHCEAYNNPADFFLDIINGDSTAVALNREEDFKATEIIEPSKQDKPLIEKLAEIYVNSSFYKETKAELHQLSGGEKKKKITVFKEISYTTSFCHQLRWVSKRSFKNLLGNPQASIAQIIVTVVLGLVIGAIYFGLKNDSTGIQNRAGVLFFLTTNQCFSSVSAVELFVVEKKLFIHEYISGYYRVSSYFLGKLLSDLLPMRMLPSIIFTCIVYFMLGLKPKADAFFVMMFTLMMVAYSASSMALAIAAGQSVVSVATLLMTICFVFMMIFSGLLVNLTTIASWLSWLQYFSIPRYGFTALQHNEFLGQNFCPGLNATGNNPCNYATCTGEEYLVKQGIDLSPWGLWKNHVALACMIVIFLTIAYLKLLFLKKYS
As to the kind of experiment: Loganin transport across Caco-2 monolayers with BCRP inhibitor apigenin. It is filed as in vitro ADME. Further details: key to Modulatory effect: +: Indicates that the inhibitor has significant effect on the loganin transport. How it is done: as §1, §2, §3, §4
Background: Caco-2 monolayers are a common model of the intestinal barrier.

Series [7] relates to T6, BCRP.
T6 construct: endogenous in cells; host or cells: Caco-2 monolayers
The series is described as above. It is filed as in vitro ADME, human. Further details: key to Modulatory effect: +: Indicates that the inhibitor has significant effect on the loganin transport. Particulars: human, Caco-2, pH 7.4; with apigenin 25 μM, loganin 20 μM, n = 3. The method, then: as §1, §2, §3, §4

The conditions of series [8]: stated as well known, no reference given; cited from earlier work.

A word on the Papp A→B: it is the apparent permeability from the apical to the basolateral side of a cell layer. As usually defined, the Papp B→A is how fast a substance crosses the layer from the basolateral side. With `COC(=O)C1=CO[C@@H](O[C@@H]2O[C@H](CO)[C@@H](O)[C@H](O)[C@H]2O)[C@@H]2[C@@H](C)[C@@H](O)C[C@H]12` [loganin, Loganin], the efflux ratio at 120 min, 20 μM worked out at 0.18 at MRP2 [1] (human, Caco-2, pH 7.4, with indomethacin 200 μM, read-out: P (efflux ratio PappBA/PappAB)) and 0.84 on P-glycoprotein (P-gp) [4] (human, Caco-2, pH 7.4, with verapamil 100 μM, read-out: P (efflux ratio PappBA/PappAB)). Further, the Modulatory effect result at MRP2 [1] (with indomethacin 200 μM) and at BCRP [6] (with apigenin 25 μM) was “+” each time. In addition, the “Increase of PappAB vs control” value on MRP2 [1] (with indomethacin, p < 0.01) is listed as 2.0 fold. In addition, the values for the Papp A→B at 120 min, 20 μM with MRP2 [2] and in the series with BCRP [7] were 24.7 ± 4.8 ×10⁻⁶ cm/s and 30.1 ± 6.2 ×10⁻⁶ cm/s, respectively. The Papp B→A at 120 min, 20 μM in the series on MRP2 [2] was found to be 4.4 ± 1.1 ×10⁻⁶ cm/s; in the series on P-glycoprotein (P-gp) [3], 9.3 ± 1.7 ×10⁻⁶ cm/s; with BCRP [7] it was 12.3 ± 2.5 ×10⁻⁶ cm/s. For the same molecule, the “Substrate of P-gp (in words)” value on P-glycoprotein (P-gp) [4] (judged from verapamil vs control) is given as “not the substrate; also recorded: not a substrate”. Moreover, the “PappAB difference between verapamil and control groups (in words)” value on P-glycoprotein (P-gp) [4] (verapamil 100 μM) was “insignificant”. The PappAB on P-glycoprotein (P-gp) [4] (with verapamil 100 μM, loganin 20 μM, n = 3) was 11.1±1.7 ×10^−6cm/s. Further, in series [5] (classification by Papp > 1×10^−5cm/s = high absorption (>70%)), the “Intestinal absorption indicated by Papp values (in words)” value was “good intestinal absorption”. The “PappAB at pH 7.4 compared with pH 6 (in words)” value in series [5] (loganin 20 μM, AP to BL, 60 min, p<0.05) is listed as “significantly higher”. Moreover, the efflux ratio at 120 min at BCRP [6] (human, Caco-2, pH 7.4, with apigenin 25 μM, read-out: P (efflux ratio PappBA/PappAB)) was found to be 0.41. For the same molecule, the “Substrate of BCRP (in words)” value on BCRP [6] (judged from apigenin vs control) was “substrate”. Besides, the “Water solubility (in words)” value in series [8] was “low”.
